Experimental data as given in patent US20140213538A1, “LYSOPHOSPHATIDIC ACID RECEPTOR ANTAGONISTS” (InterMune, Inc., priority 2013, published 2014).

Columns and labels:
Format in all cases: cell-based
LPA/S1P GPCR of interest = biological target: T1, LPA/S1P GPCR of interest (Homo sapiens, UniProt Q92633); test: Beta-Arrestin based assay (PathHunter)
T1 construct: host or cells: CHO
Method in brief: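 EA Parental CHO cells (DiscoverX) were transfected with FuGENE (Roche) using CMV promoter-driven DNA constructs encoding the LPA/S1P GPCR of interest fused to a ProLink tag. Beta-arrestin recruitment in agonist mode was assessed 24-48 hrs later with PathHunter kits. Tests ran in quadruplicate in white 384 well plates, and end point luminescence was fit to a 4 parameter logistic function.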

LPA1 [1] = biological target: T2, LPA1 (Homo sapiens, UniProt Q92633); test: Ca Flux LPA1 assay; design: the full-length cDNA for human LPA1 is obtained by PCR of the reverse transcription reaction; expressed in transfected cells
LPA1 [2] = biological target: T2, LPA1; test: LPA1 Migration Assay (Oris); design: host or cells: primary fibroblasts (lung, dermal), HFL-1, 3T3 and CHO cells expressing LPA1R; conditions: read-out: Cell Migration EC50
Method in brief: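 Oris exclusion-zone migration of LPA1R-expressing cells (primary lung/dermal fibroblasts, HFL-1, 3T3, CHO), Cell Tracker Green-loaded and serum-starved 12-24 h, toward LPA or serum. Fixed cells in the detection zone were counted by high-content imaging, and cell number vs. concentration was fitted to a 4-parameter logistic.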

T1 sequence (Q92633 whole entry): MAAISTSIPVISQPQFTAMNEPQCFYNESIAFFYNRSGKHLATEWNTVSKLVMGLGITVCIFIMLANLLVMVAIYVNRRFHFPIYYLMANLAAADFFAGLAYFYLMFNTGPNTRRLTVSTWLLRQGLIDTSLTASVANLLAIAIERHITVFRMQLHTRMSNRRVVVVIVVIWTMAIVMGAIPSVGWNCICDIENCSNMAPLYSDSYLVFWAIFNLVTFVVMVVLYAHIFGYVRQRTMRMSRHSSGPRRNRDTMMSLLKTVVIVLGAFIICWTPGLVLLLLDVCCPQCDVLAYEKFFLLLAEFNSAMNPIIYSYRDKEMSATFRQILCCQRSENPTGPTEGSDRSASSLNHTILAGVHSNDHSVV
T2 sequence (Q92633 whole entry): as above

| SMILES | EC50 (LPA/S1P GPCR of interest) | IC50 (LPA1 [1]) | EC50 (LPA1 [2]) |
| --- | --- | --- | --- |
| Cc1noc(-c2ccc(-c3ccc(C4(C(=O)O)CCC4)cc3)cc2)c1NC(=O)O[C@H](C)c1ccccc1 [IT235] | < 50 nM | 50 to 500 nM | < 50 nM |
| Cc1nnn(-c2cc(F)c(-c3ccc(C4(C(=O)O)CCOCC4)cc3)cc2F)c1NC(=O)O[C@H](C)c1ccccc1 [IT030] | > 500 nM | > 500 nM | > 500 nM |
| Cc1c(C2(C(=O)O)CC2)sc2cc(C#Cc3cnn(C)c3NC(=O)O[C@H](C)c3ccccc3)sc12 [IT107] | < 50 nM | < 50 nM | 50 to 500 nM |
| Cc1noc(-c2ccc(-c3ccc(OC(F)(F)C(=O)O)cc3)cc2)c1NC(=O)O[C@H](C)c1ccccc1 [IT228] | < 50 nM | 50 to 500 nM | 50 to 500 nM |
| Cc1noc(-c2ccc(-c3ccc(C4(C(=O)O)CC(F)(F)C4)cc3)cc2)c1NC(=O)O[C@H](C)c1ccccc1 [IT136] | < 50 nM | 50 to 500 nM | 50 to 500 nM |
